Several values for one entry are separate records, joined by “and”; a condition that tells them apart may be missing. Identical values can stand only once.
Legend:
[1] = system: HCC1937 breast cancer cell line; details: wild-type BRCA1 reconstituted vs BRCA1-negative HCC1937; cited from earlier work
sarcoma patients = assay: Clinical outcome of sarcoma patients treated with ET-743, matched with BRCA1, ERCC1 and XPD mRNA expression in tumor samples; format: in vivo, human; set-up: PFS6 rate (progression free survival higher than 6 months) / patients achieving progression free survival >=6 months (PFS6) / overall progression free survival at 6 months (Kaplan-Meier) / median survival at 12 months: concentration or dose not given beside the values
Procedure: In this study, 61 paraffin embedded tumoral samples from sarcoma patients before the treatment with any chemotherapy agent have been evaluated.
The majority of patients were treated before with one or several chemotherapy agents and later they followed a treatment with ET-743. The dosage of intravenous infusion ET-743 given to the different patients was within the range of 1.650-1.0 mg/m2; the schedules were 24 hours or 3 hour IV infusion with a three week interval between cycles; and the number of cycles ranged from 1 up to 25 cycles in some patients.
The clinical data from the patients was collected in the clinical data collection form and matched with the molecular data after completion of the mRNA expression levels determination (Table 1).
We examined XPD, ERCC1 and/or BRCA1 gene expression in formalin-fixed, paraffin-embedded tumor specimens from the 61 patients as previously described (Specht K. et al. Am J Pathol, 2001, 158, 419-429 and Krafft A E. et al. Mol Diagn. 1997, 3, 217-230). After standard tissue sample deparaffinisation using xylene and alcohols, samples were lysed in a tris-chloride, EDTA, sodium dodecyl sulphate (SDS) and proteinase K containing buffer. RNA was then extracted with phenol-chloroform-isoamyl alcohol followed by precipitation with isopropanol in the presence of glycogen and sodium acetate. RNA was resuspended in RNA storage solution (Ambion Inc; Austin Tex., USA) and treated with DNAse I to avoid DNA contamination. cDNA was synthesized using M-MLV retrotranscriptase enzyme. Template cDNA was added to Taqman Universal Master Mix (AB; Applied Biosystems, Foster City, Calif., USA) in a 20-μl reaction with specific primers and probe for each gene. The primer and probe sets were designed using Primer Express 2.0 Software (AB). Quantification of gene expression was performed using the ABI Prism 7900HT Sequence Detection System (AB). The primers and 5′ labeled fluorescent reporter dye (6FAM) probe were as follows: β-actin: forward 5′ TGA GCG CGG CTA CAG CTT 3′, reverse 5′ TCCTTAATGTCACGCACGATTT 3′, probe 5′ ACC ACC ACG GCC GAG CGG 3′; BRCA1: forward 5′ GGCTATCCTCTCAGAGTGACATTTTA 3′, reverse 5′ GCTTTATCAGGTTATGTTGCATGGT 3′, probe 5′ CCA CTC AGC AGA GGG 3′; ERCC1: forward 5′ GGGAATTTGGCGACGTAATTC 3′, reverse 5′ GCG GAG GCT GAG GAA CAG 3′, probe 5′CACAGGTGCTCTGGCCCAGCACATA 3′; XPD: forward 5′ GCTCCCGCAAAAACTTGTGT 3′, reverse 5′ CAT CGA CGT CCT TCC CAA A 3′, probe 5′ ACCCTGAGGTGACACCCCTGC 3′.
Relative gene expression quantification was calculated according to the comparative Ct method using β-actin as an endogenous control and commercial RNA controls (Stratagene, La Jolla, Calif.) as calibrators. Final results, were determined as follows: 2^−(^Δ^Ct sample−^Δ^Ct calibrator), where ΔCT values of the calibrator and sample are determined by subtracting the […]. In all experiments, only triplicates with a standard deviation (SD) of the Ct value <0.20 were accepted. In addition, for each sample analyzed, a retrotranscriptase minus control was run in the same plate to assure lack of genomic DNA contamination.
SAS v8.2 (statistical software) was used for all the statistical analysis. The statistical techniques for univariate, bivariate and multivariate variables were chosen, according with the nature of variables that will be analysed, i.e. when the dependent variable is a temporal variable with censor status the Cox regression would be applied, when correlation between variables will be computed the Pearson and/or Spearman measures would be used. P-values below 0.05 will be considered statistically significant in all tests, when appropriate 95% confidence intervals will be presented too.
A total of 61 paraffin embedded tumor samples were evaluated. […] These samples came from sarcoma patients before being treated with a chemotherapy agent.

[2] = BRCA1 mRNA <1.97 (low expression)
[3] = BRCA1 mRNA >=1.97 (high expression)
[4] = ERCC1 mRNA <5.86 (low expression)
[5] = ERCC1 mRNA >=5.86 (high expression)
[6] = Kaplan-Meier FIG. 2A, high BRCA1 expressers
[7] = Kaplan-Meier FIG. 2A, high BRCA1 expression
[8] = Kaplan-Meier FIG. 2A, low BRCA1 expression
[9] = Kaplan-Meier FIG. 2B, high ERCC1 expression
[10] = Kaplan-Meier FIG. 2B, low ERCC1 expression
[11] = Kaplan-Meier FIG. 2C (XPD), high expression
[12] = Kaplan-Meier FIG. 2C (XPD), low expression
[13] = XPD mRNA <1.99 (low expression)
[14] = XPD mRNA >=1.99 (high expression)

N.N.[Cl][Pt][Cl] [cisplatin]
increase in resistance [1]: 20 fold

COc1cc2c(cc1O)CCN[C@]21CS[C@@H]2c3c(OC(C)=O)c(C)c4c(c3[C@H](COC1=O)N1[C@@H]2[C@H]2c3c(cc(C)c(OC)c3O)C[C@@H]([C@@H]1O)N2C)OCO4 [ET-743, ecteinascidin 743]
increase in objective response, low BRCA1 subpopulation vs full cohort (sarcoma patients; 16% to 21%): 1.3 fold
increase in PFS6 rate, low BRCA1 subpopulation vs full cohort (sarcoma patients; 24% to 38%): 1.6 fold
overall response rate (RR), PR + Minor Responses (sarcoma patients; 55 evaluable patients): 16%
overall response rate (RR), only Partial Responses (sarcoma patients; 55 evaluable patients): 15%
patients achieving progression free survival >=6 months (PFS6) (sarcoma patients; 55 evaluable patients, (8 PR+1 MR+6 SD)/55): 27%
PD (number of patients) (sarcoma patients; BRCA1 cohort, Total): 30
PFS <6 (number of patients) (sarcoma patients; BRCA1 cohort, Total): 38
PFS >=6 (number of patients) (sarcoma patients; BRCA1 cohort, Total): 12
PR + MR (number of patients) (sarcoma patients; BRCA1 cohort, Total): 8
PD (number of patients) (sarcoma patients; BRCA1 mRNA <1.97): 12
PFS <6 (number of patients) (sarcoma patients; BRCA1 mRNA <1.97): 16
PFS >=6 (number of patients) (sarcoma patients; BRCA1 mRNA <1.97): 9
PR + MR (number of patients) (sarcoma patients; BRCA1 mRNA <1.97): 5
objective response (PR+MR) (sarcoma patients; [2]): 21%
patients reaching PFS6 (PFS >=6 months) (sarcoma patients; [2]): 38% and 36%
PD (number of patients) (sarcoma patients; BRCA1 mRNA >=1.97): 18
PFS <6 (number of patients) (sarcoma patients; BRCA1 mRNA >=1.97): 22
PFS >=6 (number of patients) (sarcoma patients; BRCA1 mRNA >=1.97): 3
PR + MR (number of patients) (sarcoma patients; BRCA1 mRNA >=1.97): 3
objective response (PR+MR) (sarcoma patients; [3]): 11%
patients reaching PFS6 (PFS >=6 months) (sarcoma patients; [3]): 12%
PD (number of patients) (sarcoma patients; ERCC1 cohort, Total): 22
PFS <6 (number of patients) (sarcoma patients; ERCC1 cohort, Total): 29
PR + MR (number of patients) (sarcoma patients; ERCC1 cohort, Total): 6
PD (number of patients) (sarcoma patients; ERCC1 mRNA <5.86): 12
PFS <6 (number of patients) (sarcoma patients; ERCC1 mRNA <5.86): 16
PFS >=6 (number of patients) (sarcoma patients; ERCC1 mRNA <5.86): 3
PR + MR (number of patients) (sarcoma patients; ERCC1 mRNA <5.86): 2
objective response (PR+MR) (sarcoma patients; [4]): 11%
patients reaching PFS6 (PFS >=6 months) (sarcoma patients; [4]): 16%
PD (number of patients) (sarcoma patients; ERCC1 mRNA >=5.86): 10
PFS <6 (number of patients) (sarcoma patients; ERCC1 mRNA >=5.86): 13
PFS >=6 (number of patients) (sarcoma patients; ERCC1 mRNA >=5.86): 6
PR + MR (number of patients) (sarcoma patients; ERCC1 mRNA >=5.86): 4
objective response (PR+MR) (sarcoma patients; [5]): 21%
patients reaching PFS6 (PFS >=6 months) (sarcoma patients; [5]): 32%
PFS (median) (sarcoma patients; [6]): 1.5 months
median survival (sarcoma patients; [6]): 5.4 months
median survival at 12 months (sarcoma patients; [7]): 35.71%
percentage of patients with PFS6 (sarcoma patients; [7]): 11.54%
PFS (median) (sarcoma patients; [8]): 2.3 months
median survival (sarcoma patients; [8]): 11.7 months
median survival at 12 months (sarcoma patients; [8]): 42.23%
percentage of patients with PFS6 (sarcoma patients; [8]): 41.67%
median survival (sarcoma patients; Kaplan-Meier FIG. 2B, high ERCC1 expressers): 19.4 months
PFS6 (sarcoma patients; [9]): 31.58%
median PFS (sarcoma patients; [9]): 2.2 months
PFS6 (sarcoma patients; [10]): 21.05%
median PFS (sarcoma patients; [10]): 1.4 months
median survival (sarcoma patients; [10]): 16.8 months
PFS6 (sarcoma patients; [11]): 30%
median PFS (sarcoma patients; [11]): 2.0 months
median survival (sarcoma patients; [11]): 19.4 months
median survival (sarcoma patients; Kaplan-Meier FIG. 2C (XPD), low expressers): 16.8 months
PFS6 (sarcoma patients; [12]): 17.65%
median PFS (sarcoma patients; [12]): 1.2 months
PD (number of patients) (sarcoma patients; XPD cohort, Total): 22
PFS <6 (number of patients) (sarcoma patients; XPD cohort, Total): 29
PFS >=6 (number of patients) (sarcoma patients; XPD cohort, Total): 8
PR + MR (number of patients) (sarcoma patients; XPD cohort, Total): 5
PD (number of patients) (sarcoma patients; XPD mRNA <1.99): 11
PFS <6 (number of patients) (sarcoma patients; XPD mRNA <1.99): 14
PFS >=6 (number of patients) (sarcoma patients; XPD mRNA <1.99): 3
PR + MR (number of patients) (sarcoma patients; XPD mRNA <1.99): 2
objective response (PR+MR) (sarcoma patients; [13]): 12%
patients reaching PFS6 (PFS >=6 months) (sarcoma patients; [13]): 18%
PD (number of patients) (sarcoma patients; XPD mRNA >=1.99): 11
PFS <6 (number of patients) (sarcoma patients; XPD mRNA >=1.99): 15
PFS >=6 (number of patients) (sarcoma patients; XPD mRNA >=1.99): 5
PR + MR (number of patients) (sarcoma patients; XPD mRNA >=1.99): 3
objective response (PR+MR) (sarcoma patients; [14]): 15%
patients reaching PFS6 (PFS >=6 months) (sarcoma patients; [14]): 25%
median duration of the response (PR+MR) (sarcoma patients; all patients): 13.6 months
range of duration of the response (PR+MR) (sarcoma patients; all patients): 44.1 to 3.8 months
range of survival (sarcoma patients; all patients): 0.1-66.9 months
median survival (sarcoma patients; all patients, 14 patients still censored): 7.7 months
median survival (Kaplan-Meier) (sarcoma patients; all patients, FIG. 1): 10.2 months
overall progression free survival at 6 months (Kaplan-Meier) (sarcoma patients; all patients, FIG. 1): 27.65%
objective response (PR+MR) (sarcoma patients; full cohort with BRCA1 data (8/51)): 16%
PFS6 rate (progression free survival higher than 6 months) (sarcoma patients; full cohort with BRCA1 data (12/50)): 24%

Reference: patent US20080293725A1, “Prognostic Molecular Markers” (priority 2004, published 2008)
